{"source": "patent US20260069552A1", "about": "“Methods of Providing a Cooling Sensation to Skin Afflicted with Eczema” (Kenvue Brands LLC, priority 2022, published 2026)", "system": "Staphylococcus epidermidis (ATCC 12228)", "test": "In vitro bacteria competition assay (co-culture)", "assay_type": "cell-based", "conditions": "1:1 co-culture with S. aureus in Nutrient Broth, 24 hours aerobic, CFU/mL; versus untreated; w/v % as in label; n=3", "method": "In vitro bacteria competition assay evaluated Staphylococcus epidermidis (ATCC 12228, skin health associated strain) and Staphylococcus aureus (ATCC 6538, human lesion isolate) co-culture in the presence of test materials. Percentages are w/v % in liquid medium (Nutrient Broth, Culture Media and Supplies Inc.) To mimic the microenvironment of the skin surface, an aerobic, co-culture system of S. epidermidis and S. aureus was established. 50 μL S. epidermidis and 50 μL S. aureus (a 1:1 ratio) were inoculated (50 μL at approximately 5.0×10^6 CFU/mL each) in Nutrient Broth and in the presence of the test materials as specified in Table 14 below. [table] Test groups were incubated aerobically for 24 hours (n=3 per test group) After 24 hours, each test group was plated onto agar and incubated aerobically for 24 hours […]. After incubation, colonies were counted, and CFU/mL calculated. S. epidermidis and S. aureus colonies were differentiated on agar (Tryptic Soy Agar+5% sheep's blood, BD Diagnostics) based on representative morphology."}
{"smiles": "CC(O)C(=O)O", "note": "(stereo not shown) [Lactic Acid (1.1%), Lactic acid]", "values": [{"measurement": "S. epidermidis growth in bacteria competition assay", "value": "inhibited"}]}
